From paper PMC9359557, “Discovery of a novel natural product inhibitor of Clostridioides difficile with potent activity in vitro and in vivo” (PLoS ONE, 2022)
In brackets after ≈: the same amount, converted by molar mass.

Experiments:
C. difficile [1] = test: In vitro susceptibility assay (MIC); conditions: Clostridioides difficile
C. difficile [2] = test: Minimum bactericidal concentration (MBC) assay; conditions: for MBC: Clostridioides difficile
Caco-2 cells = test: Cytotoxicity assay (MTS); type: cell-based, human; conditions: concentration up to 16 μg/ml, 24 hrs
Description: A cytotoxicity assay against Caco-2 cells was performed to assess the potential toxic effect of the natural products as described before. Caco-2 cells cultured in DMEM media supplemented with 10% FBS, 1% NEAA, and 1% penicillin/streptomycin were grown at 37°C in presence of 5% CO2. Following trypsinization, cells were seeded to 96-well plates and allowed to grow till cells in each well attained 100% confluence. Hit natural products were added to the cells at a starting concentration of 16 μg/ml whereas control wells received DMSO at the same concentration. The plates were incubated for 24 hrs. after which MTS reagent was added and absorbance was recorded at 490 nm using a SpectraMax i3Multi-Mode Microplate Reader. Caco-2 cell survival post treatment with natural products were plotted as percentage viability of natural product-treated cells in comparison to the DMSO-treated cells using GraphPad prism v. 8.0.
Fig 4 Cytotoxicity assay of natural products against Caco-2 cell line. The percentage of viable Caco-2 cells was measured as the ratio of average absorbance of each sample relative to the negative control (DMSO). The absorbance values represent the mean of three samples of each natural product compound with error bars representing standard deviation values for the absorbance.

Question: What does the source list for `CN[C@H](CC(C)C)C(=O)N[C@H]1C(=O)N[C@@H](CC(N)=O)C(=O)N[C@H]2C(=O)N[C@H]3C(=O)N[C@H](C(=O)N[C@H](C(=O)O)c4cc(O)cc(O)c4-c4cc3ccc4O)[C@H](O)c3ccc(c(Cl)c3)Oc3cc2cc(c3O[C@@H]2O[C@H](CO)[C@@H](O)[C@H](O)[C@H]2O[C@H]2C[C@](C)(N)[C@H](O)[C@H](C)O2)Oc2ccc(cc2Cl)[C@H]1O` [Vancomycin]?
Answer: MIC50 (C. difficile [1]): 0.5 µg/mL (≈ 0.345 µM); MIC90 (C. difficile [1]): 1 µg/mL (≈ 0.69 µM); MIC (C. difficile [1]; ATCC43255, […]): 1 µg/mL (≈ 0.69 µM); MIC (C. difficile [1]; BAA1870, […]): 1 µg/mL (≈ 0.69 µM); MBC (C. difficile [2]; ATCC43255, […]): 1 µg/mL (≈ 0.69 µM); MBC (C. difficile [2]; BAA1870, […]): 4 µg/mL (≈ 2.76 µM)

Question: With `CO[C@H]1[C@H](O)C[C@@H](O[C@@H]2C[C@H](Oc3cc4cc5c(c(O)c4c(O)c3C)C(=O)[C@@H](O[C@H]3C[C@H](O[C@H]4C[C@H](O[C@H]6C[C@@](C)(O)[C@@H](OC(=O)C(C)C)[C@H](C)O6)[C@H](O)[C@@H](C)O4)[C@H](O)[C@@H](C)O3)[C@H]([C@H](OC)C(=O)[C@@H](O)[C@@H](C)O)C5)O[C@H](C)[C@H]2OC(C)=O)O[C@@H]1C` [NP-003875] as the molecule, how does the MIC (C. difficile [1]) read?
Answer: 0.015 µg/mL (≈ 0.0124 µM)

Question: What about the MIC50 (C. difficile [1]) of the same molecule?
Answer: 0.03 µg/mL (≈ 0.0248 µM)

Question: And the MIC90 (C. difficile [1])?
Answer: 0.03 µg/mL (≈ 0.0248 µM)

Question: What about the MIC (C. difficile [1]; ATCC43255) of the same molecule?
Answer: 0.03 µg/mL (≈ 0.0248 µM)

Question: And the MIC (C. difficile [1]; BAA1870)?
Answer: 0.03 µg/mL (≈ 0.0248 µM)

Question: What about the MBC (C. difficile [2]; ATCC43255, […]) of the same molecule?
Answer: 0.03 µg/mL (≈ 0.0248 µM)

Question: And the MBC (C. difficile [2]; BAA1870, […])?
Answer: 0.03 µg/mL (≈ 0.0248 µM)

Question: What about the “bactericidal activity against C. difficile” value (C. difficile [2]; in words) of the same molecule?
Answer: bactericidal activity

Question: What about the “toxicity to Caco-2 cells” value (Caco-2 cells) of the same molecule?
Answer: did not exhibit toxicity

Question: What about the “toxicity to Caco-2 cells” value (Caco-2 cells; […]) of the same molecule?
Answer: non-toxic

Question: For `CCc1c(Cl)c(O)c(Cl)c(O)c1C(=O)O[C@H]1[C@H](O)[C@H](OC)[C@H](OC/C2=C\C=C\C[C@H](O)/C(C)=C/[C@H](CC)[C@@H](O[C@@H]3OC(C)(C)[C@@H](OC(=O)C(C)C)[C@H](O)[C@@H]3O)/C(C)=C/C(C)=C/C[C@@H]([C@@H](C)O)OC2=O)O[C@@H]1C` [Fidaxomicin], which MIC (C. difficile [1]) is on record?
Answer: 0.125 µg/mL (≈ 0.118 µM)

Question: What about the MIC50 (C. difficile [1]) of the same molecule?
Answer: 0.06 µg/mL (≈ 0.0567 µM)

Question: And the MIC90 (C. difficile [1])?
Answer: 0.125 µg/mL (≈ 0.118 µM)

Question: What about the MIC (C. difficile [1]; ATCC43255, […]) of the same molecule?
Answer: 0.06 µg/mL (≈ 0.0567 µM)

Question: What about the MIC (C. difficile [1]; BAA1870, […]) of the same molecule?
Answer: 0.06 µg/mL (≈ 0.0567 µM)

Question: And the MBC (C. difficile [2]; ATCC43255, […])?
Answer: 0.06 µg/mL (≈ 0.0567 µM)

Question: What about the MBC (C. difficile [2]; BAA1870, […]) of the same molecule?
Answer: 0.125 µg/mL (≈ 0.118 µM)
